Results: BindingDB's records for doi:10.1021/jm991074s (University of Catania, 2000)

Target: Cannabinoid receptor 2 (Homo sapiens, UniProt P34972)
Assay: Binding affinity towards cloned human cannabinoid receptor 2

Cannabinoid receptor 2, sequence (P34972 whole entry): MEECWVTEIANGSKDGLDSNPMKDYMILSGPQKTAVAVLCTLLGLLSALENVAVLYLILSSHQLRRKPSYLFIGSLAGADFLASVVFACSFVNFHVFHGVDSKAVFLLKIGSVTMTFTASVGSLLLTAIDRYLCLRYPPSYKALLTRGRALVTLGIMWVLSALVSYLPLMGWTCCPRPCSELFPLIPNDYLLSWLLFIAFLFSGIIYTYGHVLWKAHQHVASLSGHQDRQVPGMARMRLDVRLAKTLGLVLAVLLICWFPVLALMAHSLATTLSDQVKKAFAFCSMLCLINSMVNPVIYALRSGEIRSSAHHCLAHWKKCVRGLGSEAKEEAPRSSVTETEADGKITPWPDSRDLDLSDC

| SMILES | Ki [nM] |
| --- | --- |
| CCCCCn1ccc(C(=O)c2cccc3ccccc23)c1 | 320 |
| CC1=CCC2C(C1)c1c(O)cc(CCCCC(F)(F)F)cc1OC2(C)C (stereo not given) | 30 |
| CCCCC/C=C\C/C=C\C/C=C\C/C=C\CCCC(=O)N1CCOCC1 | 540 |
| CCCCC/C=C\C/C=C\C/C=C\C/C=C\CCC(C(=O)NCCO)C(C)C (stereo not given) | 5100 |
| CC1=CCC2C(C1)c1c(O)cc(CCCCCF)cc1OC2(C)C (stereo not given) | 8.7 |
| CCCCC/C=C\C/C=C\C/C=C\C/C=C\CCC(C)C(=O)NCCF (stereo not given) [2-Methyl-icosa-5,8,11,14-tetraenoic acid (2-fluoro-ethyl)-amide (0689)] | 130 |
| CCCCCc1cc(O)c2c(c1)OC(C)(C)c1ccc(C)cc1-2 [6,6,9-Trimethyl-3-pentyl-6H-benzo[c]chromen-1-ol(Cannabinol)] | 95 |
| CCCCC/C=C\C/C=C\C/C=C\C/C=C\CCCC(=O)NCCF [(5Z,8Z,11Z,14Z)-Icosa-5,8,11,14-tetraenoic acid (2-fluoro-ethyl)-amide] | 320 |
| CCCCC/C=C\C/C=C\C/C=C\C/C=C\CCCC(=O)NCCOC [(5Z,8Z,11Z,14Z)-Icosa-5,8,11,14-tetraenoic acid (2-methoxy-ethyl)-amide] | 450 |
| CCCCCn1c(C)c(C(=O)c2cccc3ccccc23)c2ccccc21 [JWH-007] | 3 |
